Legend:
human SGLT2 = target: T1, human SGLT2 (Homo sapiens, UniProt P31639); assay: Methyl-α-D-[U-14C]glucopyranoside uptake assay, cells stably expressing human SGLT2; assay type: cell-based; details: HEK293.ETN cells expressing human SGLT2, 1.5 h incubation
T1 construct: A full-length cDNA clone expressing human SGLT2 (GenScript Corporation)
T1 sequence (P31639 1-672): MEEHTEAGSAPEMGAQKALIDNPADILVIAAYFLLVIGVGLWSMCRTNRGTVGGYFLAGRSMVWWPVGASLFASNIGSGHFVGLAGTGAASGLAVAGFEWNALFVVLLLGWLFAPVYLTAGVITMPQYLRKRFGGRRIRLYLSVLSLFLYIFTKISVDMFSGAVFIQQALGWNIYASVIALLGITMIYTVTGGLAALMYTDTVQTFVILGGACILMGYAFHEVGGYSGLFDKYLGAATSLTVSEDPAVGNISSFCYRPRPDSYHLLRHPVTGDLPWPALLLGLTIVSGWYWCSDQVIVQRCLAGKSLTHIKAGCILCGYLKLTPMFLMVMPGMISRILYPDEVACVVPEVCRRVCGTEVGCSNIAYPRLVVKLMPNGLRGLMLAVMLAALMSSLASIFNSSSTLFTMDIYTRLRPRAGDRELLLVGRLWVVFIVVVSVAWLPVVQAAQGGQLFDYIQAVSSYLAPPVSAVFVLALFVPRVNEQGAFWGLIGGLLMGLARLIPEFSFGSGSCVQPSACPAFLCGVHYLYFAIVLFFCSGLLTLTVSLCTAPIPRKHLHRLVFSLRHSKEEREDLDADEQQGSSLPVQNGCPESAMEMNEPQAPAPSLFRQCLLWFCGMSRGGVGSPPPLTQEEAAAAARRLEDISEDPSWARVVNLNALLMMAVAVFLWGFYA
From the text: A full-length cDNA clone expressing human SGLT2 (GenScript Corporation) was subcloned into Hind III and Not I sites of pEAK15 expression vector. Clones harboring the cDNA inserts were identified by restriction analysis.
Plasmid containing human SGLT2 was linearized with Nsi I and purified by agarose gel electrophoresis. Using Lipofectamine 2000 Transfection Reagent (Invitrogen Corporation), DNA was transfected into HEK293.ETN cells and cultured in Dulbecco's Modified Eagle Medium (DMEM) containing 10% fetal bovine serum (FBS) at 37° C. under 5% CO2 for 24 h. Transfectants were selected in the same growth medium supplemented with puromycin (Invitrogen Corporation) for two weeks. Puromycin-resistant cells were recovered and seeded on a fresh 96-well plate (single cell per well) and cultured in the presence of puromycin until cells became confluent. Puromycin-resistant clones were evaluated for SGLT2 activity in the methyl-α-D-[U-^14C]glucopyranoside uptake assay described below.
(§1) Cells expressing SGLT1 or SGLT2 were seeded on 96-well ScintiPlate scintillating plates (PerkinElmer, Inc.) in DMEM containing 10% FBS (1×10^5 cells per well in 100 μl medium) incubated at 37° C. under 5% CO2 for 48 h prior to the assay. Cells were washed twice with 150 μl of either sodium buffer (137 mM NaCl, 5.4 mM KCl, 2.8 mM CaCl2, 1.2 mM MgCl2, 10 mM tris(hydroxymethyl)aminomethane/N-2-hydroxyethylpiperazine-N′-ethanesulfonic acid [Tris/Hepes], pH 7.2) or sodium-free buffer (137 mM N-methyl-glucamine, 5.4 mM KCl, 2.8 mM CaCl2, 1.2 mM MgCl2, 10 mM Tris/Hepes, pH 7.2). Test compound in 50 μl each of sodium or sodium-free buffer containing 40 μCi/ml methyl-α-D-[U-^14C] glucopyranoside (Amersham Biosciences/GE Healthcare), either with (symbols in parentheses) or without (symbols without parentheses) 25% human serum, was added per well of a 96-well plate and incubated at 37° C. with shaking for either 2 h (SGLT1 assay) or 1.5 h (SGLT2 assay). Cells were washed twice with 150 μl of wash buffer (137 mM N-methylglucamine, 10 mM Tris/Hepes, pH 7.2) and methyl-α-D-[U-^14C]glucopyranoside uptake was quantitated using a TopCount scintillation counter (PerkinElmer, Inc.). Sodium-dependent glucopyranoside uptake was measured by subtracting the values obtained with sodium-free buffer from those obtained using sodium buffer (average of triplicate determinations).

human SGLT1 = target: T2, human SGLT1 (Homo sapiens, UniProt P13866); assay: Methyl-α-D-[U-14C]glucopyranoside uptake assay, human SGLT1 expressing cells; assay type: cell-based; details: COS-7 cells expressing human SGLT1, 2 h incubation
T2 construct: Full-length human SGLT1 cDNA on pDream2.1 expression vector was obtained from GenScript Corporation; host or cells: COS-7 cells
T2 sequence (P13866 1-664): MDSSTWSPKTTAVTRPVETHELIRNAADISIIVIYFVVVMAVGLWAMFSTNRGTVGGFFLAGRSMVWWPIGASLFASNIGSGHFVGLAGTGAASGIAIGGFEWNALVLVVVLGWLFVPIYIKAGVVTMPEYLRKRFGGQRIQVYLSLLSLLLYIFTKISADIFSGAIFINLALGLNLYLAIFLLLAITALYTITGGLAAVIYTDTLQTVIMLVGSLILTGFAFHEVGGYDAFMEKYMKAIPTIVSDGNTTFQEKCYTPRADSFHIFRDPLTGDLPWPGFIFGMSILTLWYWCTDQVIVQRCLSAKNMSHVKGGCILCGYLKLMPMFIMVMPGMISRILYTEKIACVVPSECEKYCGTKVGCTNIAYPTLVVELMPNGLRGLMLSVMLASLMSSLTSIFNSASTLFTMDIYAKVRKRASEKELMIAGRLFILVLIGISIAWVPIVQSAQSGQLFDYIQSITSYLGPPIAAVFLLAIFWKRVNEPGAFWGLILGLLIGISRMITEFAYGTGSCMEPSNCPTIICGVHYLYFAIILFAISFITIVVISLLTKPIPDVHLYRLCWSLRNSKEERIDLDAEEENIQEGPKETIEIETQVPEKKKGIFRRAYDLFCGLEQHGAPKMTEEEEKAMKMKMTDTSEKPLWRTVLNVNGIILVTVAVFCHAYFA
Description: Full-length human SGLT1 cDNA on pDream2.1 expression vector was obtained from GenScript Corporation and propagated in Escherichia coli strain DH5α using Luria-Bertani (LB) medium containing ampicillin. Plasmid DNA was isolated using the QIAGEN Plasmid Midi Kit (QIAGEN Inc.). […] Transfected cells were stored in DMEM containing 10% dimethyl sulfoxide (DMSO) at −80° C.
as §1

[1] = with 25% human serum (symbols in parentheses)
[2] = without human serum (symbols without parentheses)

SMILES | IC50 (human SGLT2; [1]) [µM] | IC50 (human SGLT1; [1]) [µM] | IC50 (human SGLT2; [2]) [µM] | IC50 (human SGLT1; [2]) [µM]
CCc1ccc(Cc2cc3c(cc2Cl)OC(C)(C)C[C@]32O[C@H](CO)[C@@H](O)[C@H](O)[C@H]2O)cc1 [Compound 57, (2′S,3′R,4′S,5′S,6′R)-7-chloro-6-(4-ethylbenzyl)-6′-(hydroxymethyl)-2,2-dimethyl-3′,4′,5′,6′-tetrahydrospiro[chroman-4,2′-pyran]-3′,4′,5′-triol] | < 1 | > 100 | – | –
CCc1ccc(Cc2ccc3c(c2)[C@]2(CCO3)O[C@H](CO)[C@@H](O)[C@H](O)[C@H]2O)cc1 [Compound 12, (2′S,3′R,4′S,5′S,6′R)-6-(4-ethylbenzyl)-6′-(hydroxymethyl)-3′,4′,5′,6′-tetrahydrospiro[chroman-4,2′-pyran]-3′,4′,5′-triol] | – | – | < 1 | > 100
CCc1ccc(Cc2cc3c(cc2Cl)OC(C)(CO)C[C@]32O[C@H](CO)[C@@H](O)[C@H](O)[C@H]2O)cc1 (stereo partly drawn) [Compound 52, (2′S,3′R,4′S,5′S,6′R)-7-chloro-6-(4-ethylbenzyl)-2,6′-bis(hydroxymethyl)-2-methyl-3′,4′,5′,6′-tetrahydrospiro[chroman-4,2′-pyran]-3′,4′,5′-triol] | < 1 | > 100 | – | –
CCc1ccc(Cc2cc3c(cc2Cl)OC(OC)C[C@]32O[C@H](CO)[C@@H](O)[C@H](O)[C@H]2O)cc1 (stereo partly drawn) [Compound 43, (2′S,3′R,4′S,5′S,6′R)-7-chloro-6-(4-ethylbenzyl)-6′-(hydroxymethyl)-2-methoxy-3′,4′,5′,6′-tetrahydrospiro[chroman-4,2′-pyran]-3′,4′,5′-triol] | – | – | < 1 | > 100
CCc1ccc(Cc2cc3c(cc2Cl)OCC[C@]32O[C@H](CO)[C@@H](O)[C@H](O)[C@H]2O)cc1 [Compound 20, (2′S,3′R,4′S,5′S,6′R)-7-chloro-6-(4-ethylbenzyl)-6′-(hydroxymethyl)-3′,4′,5′,6′-tetrahydrospiro[chroman-4,2′-pyran]-3′,4′,5′-triol] | – | – | < 1 | 10 to 100
CCc1ccc(Cc2cc3c(cc2Cl)OC(C)C[C@]32O[C@H](CO)[C@@H](O)[C@H](O)[C@H]2O)cc1 (stereo partly drawn) [Compound 47, (2′S,3′R,4′S,5′S,6′R)-7-chloro-6-(4-ethylbenzyl)-6′-(hydroxymethyl)-2-methyl-3′,4′,5′,6′-tetrahydrospiro[chroman-4,2′-pyran]-3′,4′,5′-triol] | < 1 | > 100 | – | –
CCc1ccc(Cc2cc3c(cc2Cl)OCCC[C@]32O[C@H](CO)[C@@H](O)[C@H](O)[C@H]2O)cc1 [Compound 38, (2′S,3′R,4′S,5′S,6′R)-8-chloro-7-(4-ethylbenzyl)-6′-(hydroxymethyl)-3,3′,4,4′,5′,6′-hexahydro-2H-spiro[benzo[b]oxepine-5,2′-pyran]-3′,4′,5′-triol] | < 1 | 10 to 100 | – | –
CCc1ccc(Cc2cc3c(cc2Cl)OC[C@]32O[C@H](CO)[C@@H](O)[C@H](O)[C@H]2O)cc1 [Compound 30, (2′R,3′R,4′S,5′S,6′R)-6-chloro-5-(4-ethylbenzyl)-6′-(hydroxymethyl)-3′,4′,5′,6′-tetrahydro-2H-spiro[benzofuran-3,2′-pyran]-3′,4′,5′-triol] | < 1 | 10 to 100 | – | –
CCc1ccc(Cc2cc3c(cc2Cl)OC(O)C[C@]32O[C@H](CO)[C@@H](O)[C@H](O)[C@H]2O)cc1 (stereo partly drawn) [Compound 44, (2′S,3′R,4′S,5′S,6′R)-7-chloro-6-(4-ethylbenzyl)-6′-(hydroxymethyl)-3′,4′,5′,6′-tetrahydrospiro[chroman-4,2′-pyran]-2,3′,4′,5′-tetraol] | – | – | < 1 | > 100
